Results published in US12611406B2, “Oxopiperazine derivatives for the treatment of cancer” (Inthera Bioscience AG, priority 2020, dated 2026).
Like-named read-outs stand apart in the source and are kept apart here.

What was measured:
NCI-H69 = assay: γH2A.X Western blot (DNA damage biomarker); format: cell-based; conditions: 20 or 200 nM, 24 h
Procedure: (§1) Cell cycle phase distribution in control (C) cells or cells treated at 20 or 200 nM Compound 1 for 24 hours (24 h) determined by fluorescence activated cell sorting (FACS) analysis, and detection of histone H2A variant H2A.X phosphorylation (γH2A.X, also referred to herein as gamma H2A.X or γH2A.X) by Western blot as DNA damage biomarker.
(§2) The observed accumulation of DNA damage upon tumor cell exposure to Compound 1, measured as an increase of the DNA damage biomarker γH2A.X (FIG. 3A), is in line with reports of p300/CBP being involved in DNA replication and DNA damage repair (DDR). […] Among these DDR proteins are ATR (ataxia telangiectasia and Rad3-related), which controls crucial cell cycle and repair checkpoints, but also nibrin (NBS1), and poly(ADP-ribose) polymerase 1 (PARP-1).
(§3) In FIG. 3A, protein amounts were normalized using total protein load with ImageLab 6.0 Software (BioRad).

NCI-H82 = assay: γH2A.X Western blot (DNA damage biomarker); format: cell-based; conditions: 20 or 200 nM, 24 h
Procedure: as §1, §2, §3

DU-145 = assay: γH2A.X Western blot (DNA damage biomarker); format: cell-based; conditions: 20 or 200 nM, 24 h
Procedure: as §1, §2, §3

[1] = Single dose oral gavage or intravenous PK in female cynomolgus monkeys, plasma; format: in vivo; conditions: for clearance / Vd / AUC(0-inf) / AUC(0-t) / Cmax / Tmax / half-life: female, cynomolgus monkey, plasma; for clearance: read-out: cleared (Cl), mean rate (converted); for Vd: read-out: mean volume of distribution (Vz)
Procedure: The objective of the study was to determine the PK profile of Compound 1 following a single oral gavage or intravenous injection administration on 5 different occasions to female cynomolgus monkeys.
Compound 1, was administered as consecutive single doses on 5 occasions, separated by a washout period, by either oral gavage (4 and 12 mg/kg, Days 1 and 8) or by slow bolus intravenous (IV) injection (0.2 and 0.6 mg/kg, Days 15 and 22) to a group of female monkeys. In a subset of dosing the influence of grapefruit juice was evaluated (Day 34). Each single dose (Days 1, 8, 15, 22, and 34) was separated by a 7-day washout period. Blood samples were collected on Days 1, 8, 15, 22 and 34 at selected time points, i.e., 15 min, 30 min, as well as 1, 2, 4, 6, 8, and 24 hours relative to treatment for analysis of the concentration of Compound 1 in plasma and subsequent calculation of PK parameters. Additional parameters monitored included mortality, clinical observations and body weight.

PC cells = assay: Anti-proliferative assay, five day treatment, CellTiter-Glo; format: cell-based; conditions: growth inhibition
Description: The amount of cells remaining at the end of the treatment was estimated by CellTiter-Glo (Promega).
Many of the cell lines in this subset had deficiencies in the Rb1 and p53 tumor suppressor pathways.

BT-549 = assay: Caspase 3/7 activation (apoptosis); format: cell-based; set-up: key: “+” (present); “−” (absent); conditions: Rb x, p53 x
Description: (§4) It was noted that cancer cell lines that were growth inhibited at lower concentrations of Compound 1 more frequently responded to Compound 1 exposure with an apoptotic reaction (FIG. 2). Since PC cell lines were among the cancer cell types displaying a particularly high sensitivity to Compound 1 treatment (FIG. 1), the potentially underlying biological reasons for an apoptotic response were investigated in a set of PC cell lines consisting of DU-145, LNCaP, 22Rv1 and PC3 cells.
(§5) In table 1, “wt”=wild-type; “x”=cells harboring Rb and p53 deficiencies; “+” (present) or “−” (absent) indicate the arrest (i.e. accumulation) of cells in S-phase triggered by Compound 1, which coincided with accumulation of the DNA damage marker phosphorylated gamma H2AX (γH2AX; see FIG. 3A). These events are followed by activation of caspases 3 and 7 as indicators of cell apoptosis as indicated by “+” (present) or “−” (absent). In cancer cells with intact Rb and/or p53 functions (wt=wild-type), Compound 1 induced growth arrest but not a substantial increase of cells in S-phase (=S-phase arrest). Upon release of treatment, such cells are able to proliferate again.

Y-79 = assay: Caspase 3/7 activation (apoptosis); format: cell-based; set-up: key: “+” (present); “−” (absent); conditions: Rb x, p53 wt
Description: as §4, §5

[2] = Single dose intravenous and oral PK in Beagle dogs (citrate salt); format: in vivo; set-up: AUC(0-t) / AUC(0-inf): unit not given here; conditions: for AUC(0-inf) / AUC(0-t) / Tmax / half-life: both sexes, dog, whole blood
Procedure: This study determined the PK profile of Compound 1 following a single intravenous injection or oral gavage administration to Beagle dogs.
Compound 1 (citrate salt) was administered to two groups of dogs (n=1/sex/group) once by intravenous injection on Day 1, dose levels of 1 (Group 1) or 4 (Group 2) mg/kg/adm, and once by oral gavage on Day 3, dose levels of 3 (Group 1) and 12 (Group 2) mg/kg/adm, respectively. The vehicle was 5% dextrose in water for intravenous and aqueous citrate buffer solution for oral gavage administrations. Relative to each dosing on Days 1 and 3, series of blood samples were collected at pre-dose, 0.083, 0.25, 0.5, 1, 2, 4, and 7 hours for intravenous or at 0.25, 0.5, 1, 2, 4, 7, and 24 hours for oral gavage administration for analysis of Compound 1 concentrations in blood and subsequent calculation of PK parameters. Additional endpoints monitored during this study included mortality, clinical observations and body weight.

With CC(C)C[C@@H]1NCCN([C@@H](CC(C)C)C(=O)N2CCC3(C[C@@H]2C)OCC(CN2CCCC2)CO3)C1=O (stereo partly drawn) [Compound 1, (S)-3-isobutyl-1-((S)-4-methyl-1-((S)-8-methyl-3-(pyrrolidin-1-ylmethyl)-1,5-dioxa-9-azaspiro[5.5]undecan-9-yl)-1-oxopentan-2-yl)piperazin-2-one] as the compound, how does the “DNA damage marker γH2A.X” value (NCI-H69) read?
The value was “accumulation of the DNA damage marker γH2A.X”.

And the “DNA damage marker γH2A.X” value (NCI-H82)?
Its value is “accumulation of the DNA damage marker γH2A.X”.

And the “DNA damage marker γH2A.X” value (DU-145)?
Its value is “accumulation of the DNA damage marker γH2A.X”.

What about the clearance ([1]; Day 15 (IV 0.2 mg/kg)) of the same compound?
Its clearance is 43.2 mL/min/kg.

What about the Vd ([1]; Day 15 (IV 0.2 mg/kg)) of the same compound?
Its Vd is 17.4 ± 2.2 L/kg.

And the clearance ([1]; Day 22 (IV 0.6 mg/kg))?
The clearance was 41 mL/min/kg.

And the Vd ([1]; Day 22 (IV 0.6 mg/kg))?
Its Vd is 16.9 ± 1.91 L/kg.

And the AUC(0-inf) ([1]; IV 0.2 mg/kg)?
The AUC(0-inf) was 77.4 ng·h/mL.

And the AUC(0-t) ([1]; IV 0.2 mg/kg)?
The AUC(0-t) was 76.2 ng·h/mL.

What about the Cmax ([1]; IV 0.2 mg/kg) of the same compound?
Its Cmax is 47.6 ng/mL.

What about the Tmax ([1]; IV 0.2 mg/kg) of the same compound?
The Tmax was 4.8 min.

And the half-life ([1]; IV 0.2 mg/kg)?
The half-life was 278 min.

And the AUC(0-inf) ([1]; IV 0.6 mg/kg)?
The AUC(0-inf) was 244 ng·h/mL.

What about the AUC(0-t) ([1]; IV 0.6 mg/kg) of the same compound?
Its AUC(0-t) is 240 ng·h/mL.

And the Cmax ([1]; IV 0.6 mg/kg)?
The Cmax was 162 ng/mL.

And the Tmax ([1]; IV 0.6 mg/kg)?
The Tmax was 4.8 min.

And the half-life ([1]; IV 0.6 mg/kg)?
The half-life was 284 min.

And the AUC(0-inf) ([1]; po 4 mg/kg)?
The AUC(0-inf) was 17.3 ng·h/mL.

What about the AUC(0-t) ([1]; po 4 mg/kg) of the same compound?
The AUC(0-t) was 16.9 ng·h/mL.

What about the Cmax ([1]; po 4 mg/kg) of the same compound?
Its Cmax is 5.52 ng/mL.

What about the Tmax ([1]; po 4 mg/kg) of the same compound?
The Tmax was 30 min.

And the half-life ([1]; po 4 mg/kg)?
Its half-life is 282 min.

And the AUC(0-inf) ([1]; po 12 mg/kg)?
The AUC(0-inf) was 133 ng·h/mL.

And the AUC(0-t) ([1]; po 12 mg/kg)?
Its AUC(0-t) is 130 ng·h/mL.

What about the Cmax ([1]; po 12 mg/kg) of the same compound?
The Cmax was 53.6 ng/mL.

What about the Tmax ([1]; po 12 mg/kg) of the same compound?
The Tmax was 49.8 min.

And the half-life ([1]; po 12 mg/kg)?
Its half-life is 328 min.

And the clinical signs ([1]; intravenous doses up to 0.6 mg/kg)?
The clinical signs was “decrease in appetite”.

What about the clinical signs ([1]; single oral doses up to 12 mg/kg) of the same compound?
Its clinical signs is “did not result in any adverse clinical signs”.

And the “Cmax increase with grapefruit juice prior to dosing” value ([1]; vs animals without grapefruit juice, Day 34)?
The value was 2 fold.

And the IC50 values (PC cells)?
Its IC50 values is “nanomolar range”.

And the “Caspase 3/7, 8” value (BT-549)?
The value was “+”.

What about the “Caspase 3/7, 8” value (Y-79) of the same compound?
Its value is “−”.

And the Cl ([2]; IV 1 mg/kg)?
The Cl was 0.0057 (mg/kg)/(nmo/L)/h.

What about the Vss ([2]; IV 1 mg/kg) of the same compound?
The Vss was 0.004 (mg/kg)/(nmo/L).

And the Cl ([2]; IV 4 mg/kg)?
The Cl was 0.0014 (mg/kg)/(nmo/L)/h.

And the Vss ([2]; IV 4 mg/kg)?
Its Vss is 0.004 (mg/kg)/(nmo/L).

What about the tolerability ([2]; IV 1 and 4 mg/kg/adm or oral gavage 3 and 12 mg/kg/adm) of the same compound?
Its tolerability is “well tolerated”.

What about the AUC(0-inf) ([2]; Beagle, IV 1 mg/kg) of the same compound?
The AUC(0-inf) was 0.089.

And the AUC(0-t) ([2]; Beagle, IV 1 mg/kg)?
The AUC(0-t) was 0.063.

What about the Tmax ([2]; Beagle, IV 1 mg/kg) of the same compound?
The Tmax was 4.8 min.

What about the half-life ([2]; Beagle, IV 1 mg/kg) of the same compound?
The half-life was 30 min.

What about the AUC(0-inf) ([2]; Beagle, po 12 mg/kg) of the same compound?
The AUC(0-inf) was 2.39.

What about the AUC(0-t) ([2]; Beagle, po 12 mg/kg) of the same compound?
The AUC(0-t) was 1.91.

And the Tmax ([2]; Beagle, po 12 mg/kg)?
Its Tmax is 15 min.

What about the half-life ([2]; Beagle, po 12 mg/kg) of the same compound?
The half-life was 198 min.

And the AUC(0-inf) ([2]; beagle, IV 4 mg/kg)?
The AUC(0-inf) was 1.45.

What about the AUC(0-t) ([2]; beagle, IV 4 mg/kg) of the same compound?
Its AUC(0-t) is 1.29.

What about the Tmax ([2]; beagle, IV 4 mg/kg) of the same compound?
Its Tmax is 4.8 min.

And the half-life ([2]; beagle, IV 4 mg/kg)?
The half-life was 150 min.

And the AUC(0-inf) ([2]; beagle, po 3 mg/kg)?
Its AUC(0-inf) is 0.289.

And the AUC(0-t) ([2]; beagle, po 3 mg/kg)?
Its AUC(0-t) is 0.182.

What about the Tmax ([2]; beagle, po 3 mg/kg) of the same compound?
Its Tmax is 15 min.

What about the half-life ([2]; beagle, po 3 mg/kg) of the same compound?
Its half-life is 156 min.

What about the Cl ([2]; po 3 mg/kg) of the same compound?
Its Cl is 0.0052 (mg/kg)/(nmo/L)/h.

What about the Cl ([2]; po 12 mg/kg) of the same compound?
Its Cl is 0.0025 (mg/kg)/(nmo/L)/h.
